{"source": "patent US10570401B2", "about": "“Compositions and method for destabilizing, altering, and dispersing biofilms” (priority 2013, dated 2020)", "key": {"[1]": {"test_system": "bacterial biofilm communities", "assay": "L-arginine versus D-arginine on bacterial biofilm communities", "assay_type": "cell-based", "settings": "FIG. 11", "description": "Therefore the destabilizing effects of arginine are specific to the L-form."}, "[2]": {"test_system": "multi-species oral biofilm communities", "assay": "Multi-species oral biofilms in static (non-flowing) microplate system, CLSM", "assay_type": "cell-based", "settings": "500 mM, static microplate system (FIG. 6)", "description": "Upper renderings (A1-H1) are of the x-y plane. Middle renderings (A2-H2) are of the x-z plane. Lower renderings (A3-H3) represent an angled view (x-y-z). Bars represent 50 μm."}, "[3]": {"test_system": "AI-2 production by multi-species biofilms", "assay": "AI-2 bioluminescence assay with Vibrio harveyi BB170 on microfluidics efflux of multi-species biofilms", "assay_type": "cell-based", "settings": "fold induction of bioluminescence, increasing arginine concentrations (FIG. 10)", "description": "The AI-2 data are normalized to the “control” (non-supplemented saliva).\nValues were produced by first taking averages of 4 trials at each concentration and dividing them by the average for the negative control, creating an induction number. […] High AI-2 may also have a destabilizing effect on the community, which could explain or contribute to the structural changes seen in the biofilms."}, "saliva derived community": {"test_system": "saliva derived community", "assay": "Community composition of saliva-derived biofilms by 454 pyrosequencing", "assay_type": "cell-based", "procedure": "Black-colored bars represent data derived from the analysis of biofilms developed in flowing non-supplemented saliva while the grey-colored bars represent data derived from the analysis of biofilms developed in 500 mM supplemented saliva. (B) Showing changes in phyla (color coding as before). (C) Showing changes in composition of genera (key is from left to right in order from bottom to top in bar; Neisseria, Granulicatella, Streptococcus, etc).\n(§1) This example describes the impact of L-arginine on oral biofilms that contain species grown under conditions representative of the human oral cavity. […] Destabilization was expressed as loss of biofilm structure and change in bacterial community membership, as determined by confocal laser scanning microscopy and 454 pyrosequencing."}, "S. gordonii biofilms": {"test_system": "S. gordonii biofilms", "assay": "S. gordonii biofilm formation in saliva, Bioflux microfluidics system", "assay_type": "cell-based", "procedure": "(§2) The effects of arginine-dependent dosing of S. gordonii biofilms is assessed in a modified Bioflux microfluidics system. Human saliva is collected and pooled from ≥6 different volunteers (Cuadra-Saenz et al., Microbiology. 2012; 158(Pt 7):1783-95), diluted to 25%, and additional supplements (e.g. sucrose, haemin, BHI) added as required to simulate different conditions. Note, we grow robust biofilms in even non-supplemented saliva and pooling the saliva minimizes variation in salivary components. To obtain an indication of free arginine levels in pooled saliva, arginine is measured in ≥3 different pooled saliva samples using standard techniques (Jakubovics et al., supra; Van Wuyckhuyse et al., Journal of dental research. 1995; 74(2):686-90). The 24 channels of the Bioflux system are coated with saliva, inoculated with monocultures of S. gordonii (or multi-species biofilms harvested form saliva) and biofilms are developed at 37° C. with cell free saliva. After 20 h, cells are stained with live/dead stain and visualized using a Leica SPE CLSM. Biomass and structural biofilm parameters are quantified using COMSTAT (Heydorn et al., Microbiology. 2000; 146 (Pt 10):2395-407), ImageJ (Collins, Biotechniques. 2007; 43(1 Suppl):25-30), and IMARIS software (Bitplane, Switzerland)."}, "[4]": {"test_system": "pre-formed multi-species oral biofilms"}, "[5]": {"test_system": "multi-species oral biofilms", "assay": "Multi-species oral biofilms developed 20 h in flowing saliva (Bioflux microfluidic system), CLSM live/dead", "assay_type": "cell-based", "procedure": "as §2, §1\nGreen signal indicates viable live cells and red signal indicates damaged/dead cells. […] Data derived from at-least 18 renderings across three experiments and standard deviations are shown in brackets. *P<0.05; **P<0.01; […]: significant differences from the CFS control."}, "S. gordonii DL1": {"test_system": "S. gordonii DL1", "assay": "Fluorescent reporter plasmid (pPE1010) expression in S. gordonii DL1 biofilms on exogenous AI-2", "assay_type": "cell-based", "settings": "exogenously added AI-2 (FIG. 12B)", "description": "A plasmid (See e.g., FIG. 12) was utilized to monitor expression of reporter genes in the presence of arginine or AI-2. The pPE1010 backbone described in England et al. (Proc Natl Acad Sci USA. 2004 Nov. 30; 101(48):16917-22. Epub 2004 Nov. 16) was modified to express fluorescent genes such as GFP or Mcherry in S. gordonii DL1 or other species of streptococci. Specifically, promoters from differentially regulated genes are inserted upstream of a GFP or Mcherry gene harbored on pPE1010 (or similar streptococcal plasmid shuttle vector system) to be differentially expressed (FIGS. 12A and 12B). […] The plasmid provides constitutive-producing fluorescent probes for monitoring bacteria in biofilms and reporter systems that report arginine (or AI-2) concentrations in biofilms such as those found in dental plaque biofilms."}}}
{"compound": "N=C(N)NCCC[C@@H](N)C(=O)O", "note": "[D-arginine, reference compound]", "values": [{"measurement": "disruption of bacterial biofilm communities", "setting": "[1]", "value": "does not have the same effect"}]}
{"compound": "N=C(N)NCCC[C@H](N)C(=O)O", "note": "[L-arginine]", "values": [{"measurement": "biofilm architecture", "setting": "[2]", "value": "makes the biofilm more diffuse with respect to architecture"}, {"measurement": "biofilm biomass", "setting": "[2]", "value": "reduce biofilm biomass"}, {"measurement": "killing", "setting": "[2]", "value": "No substantial killing was observed"}, {"measurement": "amount of AI-2 produced from multi-species biofilms", "setting": "[3]", "value": "increases as the concentrations of arginine used to treat them increases"}, {"measurement": "proportion of Veillonella species and non-cariogenic streptococci in biofilms", "setting": "saliva derived community; 500 mM treated biofilms", "value": "increased"}, {"measurement": "bacterial diversity (operational taxonomic units, OTU)", "setting": "saliva derived community; prolonged exposure to 500 mM (FIG. 5A)", "value": "increase in bacterial diversity"}, {"measurement": "extent of biofilm present", "setting": "S. gordonii biofilms; 500 mM arginine, saliva, 20 h (FIG. 3)", "value": "significantly reduce the extent of biofilm present"}, {"measurement": "biofilm formation by S. gordonii", "setting": "S. gordonii biofilms; high (millimolar) concentrations of arginine, dose-dependent", "value": "abrogate biofilm formation by S. gordonii"}, {"measurement": "destabilization of pre-formed biofilms", "setting": "[4]; 500 mM (FIG. 8)", "value": "destabilizes pre-formed multi-species oral biofilms of differing developmental age"}, {"measurement": "penetration of CPC into biofilm", "setting": "[4]; 500 mM L-arginine, CPC 0.01 or 0.05% (FIG. 9)", "value": "enhance the penetration of CPC"}, {"measurement": "disruption of bacterial biofilm communities", "setting": "[1]", "value": "disrupts bacterial biofilm communities"}]}
{"compound": "Cl.N=C(N)NCCC[C@H](N)C(=O)O", "note": "[LAHCL, L-arginine monohydrochloride]", "values": [{"measurement": "changes in pH", "setting": "[5]; HCl balanced L-arginine in human saliva", "value": "No substantial changes in pH"}, {"measurement": "destabilization of oral biofilms (loss of biofilm structure, change in community membership)", "setting": "[5]; human saliva inoculum, 25% filter-sterilized saliva", "value": "destabilizes oral biofilms in a concentration dependent manner"}, {"measurement": "antimicrobial effects", "setting": "[5]; only detected as a consequence of biofilm perturbation", "value": "Very limited antimicrobial effects"}]}
{"compound": "autoinducer-2 [AI-2]", "values": [{"measurement": "reporter expression from 50S ribosomal protein (SGO_1192) promoter", "setting": "S. gordonii DL1", "value": "minimal differential expression"}, {"measurement": "reporter expression from catabolite control protein A (SGO_0773; ccpA) promoter", "setting": "S. gordonii DL1", "value": "drastically different gene expression"}]}
